Patent US8318764B2, “Macrocyclic inhibitors of JAK” (Roche Palo Alto LLC, priority 2009, dated 2012)

Each compound was assayed against T1, JAK3: Recombinant human kinase domain (810-1124) (Homo sapiens, UniProt P52333) (assay: Determination of IC50 of Janus Kinase (JAK) inhibition, radioactive 33P-ATP end-point assay, JAK3). Conditions: 0.1 nM JAK3, ATP 1.5 uM, peptide 50 uM, 20 minutes, room temperature; read-out: JAK3 Enzyme IC50.
T1 construct: Recombinant human kinase domain (810-1124); made in house
T1 sequence (P52333 810-1124): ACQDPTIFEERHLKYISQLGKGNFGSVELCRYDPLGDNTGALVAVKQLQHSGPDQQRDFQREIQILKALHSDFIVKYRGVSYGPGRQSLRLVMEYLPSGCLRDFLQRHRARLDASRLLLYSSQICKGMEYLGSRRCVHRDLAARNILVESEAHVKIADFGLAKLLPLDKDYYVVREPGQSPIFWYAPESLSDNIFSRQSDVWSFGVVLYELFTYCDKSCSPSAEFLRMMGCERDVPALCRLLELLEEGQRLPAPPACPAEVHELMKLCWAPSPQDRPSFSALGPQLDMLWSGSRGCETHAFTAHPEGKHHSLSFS
Type: biochemical
Description: Determination of IC50 of Janus Kinase (JAK) inhibition:
Enzymes and peptide substrate used are described below:
JAK3: Recombinant human kinase domain (810-1124) made in house by Roche Palo Alto
Substrate: N-terminally biotinylated 14-mer peptide derived from activation loop of JAK1 with sequence of the peptide substrate: Biotin-KAIETDKEYYTVKD
Assay conditions used are described below:
Assay Buffer: JAK Kinase Buffer: 50 mM Hepes [pH 7.2], 10 mM MgCl2, 1 mM DTT, 1 mg/ml BSA. The assay is carried out in this buffer.
Assay Format: The kinase activity of all three JAK kinases is measured using a radioactive, end-point assay and with trace amounts of ^33P-ATP. The assays are carried out in 96-well polypropylene plates.
All concentrations are final in the reaction mixture and all incubations are carried at room temperature. Assay steps are described below:
1) Compounds are serially diluted in 100% DMSO typically at a 10× starting concentration of 1 mM. Final concentration of DMSO in the reaction is 10%.
2) Compounds are preincubated with enzyme (0.1 nM JAK3, 1 nM JAK2, 5 nM JAK1) for 10 minutes.
3) Reactions are initiated by the addition of a cocktail of the two substrates (ATP and peptide premixed in the JAK Kinase Buffer). In the JAK1/JAK2/JAK3 assays, ATP and the peptide are used at concentrations of 1.5 uM and 50 uM, respectively. The duration of the assay for JAK2 and JAK3 is 20 minutes. JAK1 assay is carried out for 45 minutes. With all three enzymes, reactions are terminated by the addition of 0.5M EDTA to a final concentration of 100 mM. 4) 25 ul of terminated reactions are transferred to 150 ul of a 7.5% (v/v) slurry of streptavidin-coated sepharose beads in MgCl2- and CaCl2-free 1× Phosphate Buffered Saline containing 50 mM of EDTA in 96-well, 1.2 um MultiScreen-BV filter plates. 5) After a 30-minute incubation, the beads are washed under vacuum with the following buffers:
a. 3 to 4 washes with 200 ul of 2M NaCl.
b. 3 to 4 washes with 200 ul of 2M NaCl plus 1% (v/v) phosphoric acid.
6) Washed plates are dried in a 60° C. oven for between 1 to 2 hours.
7) 70 ul of Microscint 20 scintillation fluid is added to each well of filter plates and after at least 30 minutes of incubation, radioactive counts are measured in a Perkin Elmer microplate scintillation counter.

SMILES | IC50 [nM]
CCC1(C)CCCCCCc2cccc(n2)Nc2n[nH]c3c2CN(C3)C1=O (centres unmarked) [Compound I-1] | 915
CC1CCCCC(C)(C)C(=O)N2Cc3[nH]nc(c3C2)Nc2cccc1n2 (centres unmarked) [Compound I-2] | 795
CC1(C)CCCCCc2cc(ccn2)Nc2n[nH]c3c2CN(C3)C1=O [Compound I-3] | > 10000
CCC1(C)CCCCCc2cccc(n2)Nc2n[nH]c3c2CN(C3)C1=O (centres unmarked) [Compound I-4] | 280
CCC1(C)CCCCOc2cccc(n2)Nc2n[nH]c3c2CN(C3)C1=O (centres unmarked) [Compound I-5] | 530
CC1(C)CCCCCc2cccc(n2)Nc2n[nH]c3c2CN(C3)C1=O [Compound I-6] | 502
CC1(C)CCCCc2cccc(n2)Nc2n[nH]c3c2CN(C3)C1=O [Compound I-7] | 811
CC1(C)CCCCOc2cccc(n2)Nc2n[nH]c3c2CN(C3)C1=O [Compound I-8] | 1040
CC1(C)CCCOc2cccc(n2)Nc2n[nH]c3c2CN(C3)C1=O [Compound I-9] | > 3000
CC1(C)CCCCCOc2cccc(n2)Nc2n[nH]c3c2CN(C3)C1=O [Compound I-10] | 343
CC1CCc2cccc(n2)Nc2n[nH]c3c2CN(C3)C(=O)C(C)(C)CC1 (centres unmarked) [Compound I-11] | 487
CC12CCN(CCCCc3cccc(n3)Nc3n[nH]c4c3CN(C4)C1=O)C2 (centres unmarked) [Compound I-12] | 42.6
CC12CCN(CCCc3cccc(n3)Nc3n[nH]c4c3CN(C4)C1=O)C2 (centres unmarked) [Compound I-13] | 92.8
O=C1N2Cc3[nH]nc(c3C2)Nc2cccc(n2)CCCCCC12CCCCC2 [Compound I-14] | 4210
O=C1N2Cc3[nH]nc(c3C2)Nc2cccc(n2)CCCCCC12CCCC2 [Compound I-15] | 444
CC1(c2ccccc2)CCCCCc2cccc(n2)Nc2n[nH]c3c2CN(C3)C1=O (centres unmarked) [Compound I-16] | > 1000
O=C1N2Cc3[nH]nc(c3C2)Nc2cccc(n2)CCCCCC12CCOCC2 [Compound I-17] | > 1000
